In patent publication EP4043037A1, “CELLULAR HYDRATION COMPOSITIONS CONTAINING CYCLODEXTRINS” (Eastpond Laboratories Limited, priority 2010, dated 2012):

Assays:
C. elegans nematodes = experiment: C. elegans lifespan in media with additives; assay type: in vivo; conditions: for Animals alive, % of initial (N=50): derivatized cyclodextrin 0.1% w/v in media, USA 1 water; for effect on C. elegans survival: added to culture media; for effect on C. elegans survival / number of animals surviving to old ages: result in words; for Animals alive, (N= % of initial =50): parent cyclodextrin 0.1% w/v in media, USA I water; for number of animals surviving to old ages: after day 15, 0.1 % w/v
Description: C. elegans nematodes were grown in petri-type dishes containing normal nutrient liquid media prepared alternatively with USA 1 water (described in Example 2) lacking any further additive component (control) or the same water supplemented with a parent α-, β-, or γ-cyclodextrin, and/or a bioactive agent, as an active component of cellular hydration. Fifty ⊥ 3 worms were transferred to each dish. Each condition was repeated in triplicate. Experiments were repeated for USA II and BP I waters described in Example 2.
Water additives: A. Addition of parent α-, β- and γ-cvclodcxtrins. B. Addition of L-arginine and nicotinamide. C. Addition of inclusion complexes of cyclodextrins with L-arginine and nicotinamide.

[1] = NIR spectroscopy of water bonding with cyclodextrin additives; assay type: physicochemical
Description: Hydration bond energies in pure waters and solutions of the same waters containing cyclodextrin compounds were assayed using IR spectroscopy in the near and middle infrared ranges. To record linear signals throughout an entire wavelength range, attenuation from water absorbance was minimized with a short optical length cuvette.
NIR range spectra were registered on a FOSS NIR Systems, Inc. 6500 spectrometer and Sample Transport Module (STM) using a 1 mm-es cuvette. […]
Three samples of water were used in the present study. A first water sample (USA I) was obtained from the U.S. and was purified by reverse osmosis, carbon filtration, ultraviolet light exposure, membrane filtration to 0.2 micron absolute, and ozonation. A second water sample (USA II) was also obtained from the U.S. A third water sample (BP I) was obtained from Budapest, Hungary.
The following cyclodextrins were added to the above described water samples at a concentration range of 0.1% - 5% w/v: • α-cyclodextrin (αCD also denoted as ACD), Lot. No. CYL-2322. • β-cyclodextrin (βCD also denoted as BCD). Lot. No. CYL-2518/2. • γ-cyclodextrin (γCD also denoted as GCD), Lot. No. CYL-2323. • 2-hydroxypropyl-β-cyclodextrin (HPβCD, HPBCD), DS^∗ = 3.5, Lot. No. CYL-2232. • 2-hydroxypropyl-γ-cyclodextrin (HPCD, HPGCD), DS^∗ = 4.8, Lot. No. CYL-2258. • carboxymethyl-β-cyclodextrin (CMBCD), Lot. No. CYL-2576. • quaternary-ammonium-β-cyclodextrin (QABCD).

[2] = tested on: Wheat seeds (Triticum aestivum); experiment: Wheat seed germination in water with additives; assay type: in vivo
Description: For each condition, ten seeds were placed in continuous water contact in a Petri-type dish kept at 25C in 12 hr light/dark cycles. Photometric images were recorded on days 1 to 6 after seeding. The percentage of seeds germinated was calculated and compared as a function of time and of the applied additive concentrations.
Water samples for seed germination were used alone with no additive, or containing cyclodextrins, or containing clathrate inclusion complexes of cyclodextrin with L-arginine or with nicotinamide (both obtained from Sigma Chemical Co.; St. Louis, MO), or with L-carnitine (from Lonza AG; Switzerland). […] Additive solutions were prepared fresh on the day of germination start.
Germination kinetics in control and additive-modified water under identical conditions were quantified as the percentage of the seeds having a sprout. Each determination consisted of 100 seeds for each parameter. Results are reported in Table 1, below, and in FIGS. 11-13.

[3] = wavelength region 900-1200 nm (FIG. 7)
[4] = day 0, additive 0.5% w/v in USA I water, Table 1
[5] = day 1, additive 0.5% w/v in USA I water, Table 1
[6] = day 2, additive 0.5% w/v in USA I water, Table 1
[7] = day 3, additive 0.5% w/v in USA I water, Table 1
[8] = day 4, additive 0.5% w/v in USA I water, Table 1
[9] = day 0, additive 0.5% w/v in USA 1 water, Table 2, percentage of the seeds having a sprout
[10] = day 1, additive 0.5% w/v in USA 1 water, Table 2, percentage of the seeds having a sprout
[11] = day 2, additive 0.5% w/v in USA 1 water, Table 2, percentage of the seeds having a sprout
[12] = day 3, additive 0.5% w/v in USA 1 water, Table 2, percentage of the seeds having a sprout
[13] = day 4, additive 0.5% w/v in USA 1 water, Table 2, percentage of the seeds having a sprout

For “2-hydroxy-3-N,N,N-trimethylamino)propyl-β-cyclodextrin chloride [Quaternaryammonium-β-Cyclodextrin]”, the “Animals alive, % of initial (N=50)” value (C. elegans nematodes; life span 10 days) was 98 % of initial, the “Animals alive, % of initial (N=50)” value (C. elegans nematodes; life span 15 days) was 13 % of initial and the “Animals alive, % of initial (N=50)” value (C. elegans nematodes; life span 18 days) was 2 % of initial. The “water-bond interactions, second-derivative NIR spectra” value (“water-bond interactions” for short) ([1]; 1200-1500 nm (FIG. 8)) was “significantly modified”, the “water-bond interactions” value ([1]; 1620-1710 nm (FIG. 9)) was “significantly modified” and the “water-bond interactions” value ([1]; 2170-2370 nm (FIG. 10)) was “further significantly modified”. The “effect on micro-structure of hydrogen bonds in bulk water (NIR spectral changes)” value ([1]; comparison among cyclodextrin-treated water samples (FIGS. 9 and 10)) was “largest” and the “water-bond interactions” value [1, 3] was “significantly modified”.
With `CC(O)COC[C@H]1O[C@@H]2O[C@H]3[C@H](O)[C@@H](O)[C@@H](O[C@H]4[C@H](O)[C@@H](O)[C@@H](O[C@H]5[C@H](O)[C@@H](O)[C@@H](O[C@H]6[C@H](O)[C@@H](O)[C@@H](O[C@H]7[C@H](O)[C@@H](O)[C@@H](O[C@H]8[C@H](O)[C@@H](O)[C@@H](O[C@H]1[C@H](O)[C@H]2O)O[C@@H]8COCC(C)O)O[C@@H]7COCC(C)O)O[C@@H]6COCC(C)O)O[C@@H]5COCC(C)O)O[C@@H]4COCC(C)O)O[C@@H]3COCC(C)O` (stereo partly drawn) [HP-β-Cyclodextrin, 2-hydroxypropyl-β-cyclodextrin] the “Animals alive, % of initial (N=50)” value (C. elegans nematodes; life span 10 days) was 96 % of initial, the “Animals alive, % of initial (N=50)” value (C. elegans nematodes; life span 15 days) was 17 % of initial and the “Animals alive, % of initial (N=50)” value (C. elegans nematodes; life span 18 days) was 0 % of initial. The “water-bond interactions” value ([1]; 1200-1500 nm (FIG. 8)) was “significantly modified”, the “water-bond interactions” value ([1]; 1620-1710 nm (FIG. 9)) was “significantly modified” and the “water-bond interactions” value ([1]; 2170-2370 nm (FIG. 10)) was “significantly modified”. The “water-bond interactions” value [1, 3] was “further significantly modified”.
With `N=C(N)NCCC[C@H](N)C(=O)O` [L-Arg, L-arginine, reference compound] the “effect on C. elegans survival” value (C. elegans nematodes) was “little effect”, the “wheat seed germination rate” value [2, 4] was 0 percentage of total seeds and the “wheat seed germination rate” value [2, 5] was 0 percentage of total seeds. The “wheat seed germination rate” value [2, 6] was 30 percentage of total seeds, the “wheat seed germination rate” value [2, 7] was 45 percentage of total seeds and the “wheat seed germination rate” value [2, 8] was 60 percentage of total seeds.
With `NC(=O)c1cccnc1` [nicotinamide, reference compound] the “effect on C. elegans survival” value (C. elegans nematodes) was “little effect”, the wheat seed germination rate [2, 9] was 0% and the wheat seed germination rate [2, 10] was 0%. For the same molecule, the wheat seed germination rate [2, 11] was 4%, the wheat seed germination rate [2, 12] was 10% and the wheat seed germination rate [2, 13] was 60%.
For `OC[C@H]1O[C@@H]2O[C@H]3[C@H](O)[C@@H](O)[C@@H](O[C@H]4[C@H](O)[C@@H](O)[C@@H](O[C@H]5[C@H](O)[C@@H](O)[C@@H](O[C@H]6[C@H](O)[C@@H](O)[C@@H](O[C@H]7[C@H](O)[C@@H](O)[C@@H](O[C@H]8[C@H](O)[C@@H](O)[C@@H](O[C@H]1[C@H](O)[C@H]2O)O[C@@H]8CO)O[C@@H]7CO)O[C@@H]6CO)O[C@@H]5CO)O[C@@H]4CO)O[C@@H]3CO` [β-Cydodextrin, β-cyclodextrin], the “Animals alive, (N= % of initial =50)” value (C. elegans nematodes; life span 10 days) was 100 % of initial, the “Animals alive, (N= % of initial =50)” value (C. elegans nematodes; life span 15 days) was 18 % of initial and the “Animals alive, (N= % of initial =50)” value (C. elegans nematodes; life span 18 days) was 0 % of initial.
In the case of “carboxymethyl-β-cyclodextrin [Carboxymethyl-β-Cydodextrin]”, the “Animals alive, % of initial (N=50)” value (C. elegans nematodes; life span 10 days) is reported as 94 % of initial, the “Animals alive, % of initial (N=50)” value (C. elegans nematodes; life span 15 days) is reported as 11 % of initial and the “Animals alive, % of initial (N=50)” value (C. elegans nematodes; life span 18 days) is reported as 0 % of initial. The “water-bond interactions” value ([1]; 1200-1500 nm (FIG. 8)) was “further significantly modified”, the “water-bond interactions” value ([1]; 1620-1710 nm (FIG. 9)) was “significantly modified” and the “water-bond interactions” value ([1]; 2170-2370 nm (FIG. 10)) was “significantly modified”. For the same molecule, the “water-bond interactions” value [1, 3] was “further significantly modified”.
In the case of α-cyclodextrin, the “number of animals surviving to old ages” value (C. elegans nematodes) is reported as “significantly increased”, the “Animals alive, (N= % of initial =50)” value (C. elegans nematodes; life span 10 days) is reported as 100 % of initial and the “Animals alive, (N= % of initial =50)” value (C. elegans nematodes; life span 15 days) is reported as 20 % of initial. For the same molecule, the “Animals alive, (N= % of initial =50)” value (C. elegans nematodes; life span 18 days) was 2 % of initial, the wheat seed germination rate [2, 9] was 0% and the “wheat seed germination rate” value [2, 4] was 0 percentage of total seeds. The wheat seed germination rate [2, 10] was 11%, the “wheat seed germination rate” value [2, 5] was 0 percentage of total seeds and the wheat seed germination rate [2, 11] was 18%. For the same molecule, the “wheat seed germination rate” value [2, 6] was 48 percentage of total seeds, the wheat seed germination rate [2, 12] was 68% and the “wheat seed germination rate” value [2, 7] was 70 percentage of total seeds. The wheat seed germination rate [2, 13] was 92% and the “wheat seed germination rate” value [2, 8] was 85 percentage of total seeds.
In the case of γ-cyclodextrin, the “number of animals surviving to old ages” value (C. elegans nematodes) is reported as “significantly increased”, the “Animals alive, (N= % of initial =50)” value (C. elegans nematodes; life span 10 days) is reported as 100 % of initial and the “Animals alive, (N= % of initial =50)” value (C. elegans nematodes; life span 15 days) is reported as 13 % of initial. For the same molecule, the “Animals alive, (N= % of initial =50)” value (C. elegans nematodes; life span 18 days) was 2 % of initial.
